Tested on: subjects with NASH
Experiment: Clinical Trial A: liver biopsy histology (NASH-CRN, Kleiner fibrosis classification) at trial week 72
Format: in vivo, human
Details: for Worsening of liver fibrosis stage determined via liver biopsy at end of trial compared to baseline, Proportion of subjects: all randomised subjects
Source text: NASH diagnosis may further include histological evidence of NASH with an NAFLD activity score (NAS) of more than 4. In some embodiments the term “NAFLD activity score” as used herein refers to the unweighted sum of the individual scores of steatosis (score 0-3), lobular inflammation (score 0-3), and hepatocyte ballooning (score 0-2) determined by liver biopsy histology according to NASH-CRN; thus, NAS is in the range of 0 to 8. In some embodiments NASH-CRN is as published in Kleiner et al. Hepatology. 2005; 41(6):1313-21 (e.g. Table 1) and Brunt et al. World J Gastroenterol. 2010; 16(42):5286-96. In some embodiments the term “steatosis” as used herein refers to liver biopsy histology showing low- to medium-power evaluation of parenchymal involvement by steatosis and is one of the stages with a score selected from the group consisting of “0” (<5%), “1” (5%-33%), “2” (>33%-66%), and “3” (>66%) according to NASH-CRN. In some embodiments the term “lobular inflammation” as used herein refers to the overall assessment of all inflammatory foci in liver biopsy histology and is one of the stages with a score selected from the group consisting of “0” (no foci), “1” (<2 foci per 200 times magnification field), “2” (2-4 foci per 200 times magnification field) and “3” (>4 foci per 200 times magnification field) according to NASH-CRN. In some embodiments the term “hepatocyte ballooning” as used herein refers to liver biopsy histology showing one of the stages with a score selected from the group consisting of “0” (none), “1” (few balloon cells) and “2” (many cells/prominent ballooning) according to NASH-CRN.
In some embodiments the method of the invention provides resolution of NASH. In some embodiments the term “resolution of NASH” as used herein refers to the subject no longer fulfilling the criteria for a NASH diagnosis. In some embodiments the term “resolution of NASH” refers to a liver biopsy histology showing (i) no more than mild residual inflammatory cells (i.e. inflammation score 0 or 1 according to NASH-CRN), (ii) no hepatocyte ballooning (i.e. hepatocyte ballooning score of 0 according to NASH-CRN), and (iii) any value for steatosis (i.e. steatosis score of 0-3 according to NASH-CRN). In some embodiments the method of the invention provides an improvement of lobular inflammation and/or hepatocyte ballooning. In some embodiments the term “improvement of lobular inflammation” as used herein refers to reduction by at least one stage of lobular inflammation (score 0-3) as defined herein; for example, reduction from a score 3 to a score 1. In some embodiments the term “improvement of hepatocyte ballooning” as used herein refers to reduction by at least one stage of hepatocyte ballooning (score 0-2) as defined herein; for example, reduction from a score 2 to a score 0.
In some embodiments the term “fibrosis” as used herein refers to the fibrosis stage in NASH described by the Kleiner fibrosis classification. In some embodiments the terms “Kleiner fibrosis classification” or “fibrosis stage” are used interchangeably herein and refer to the classification as defined in Kleiner et al. Hepatology, 2005; 41(6):1313-21 which consists of the stages selected from the group consisting of “0” (absence of fibrosis), “1” (portal/perisinusoidal fibrosis), “2” (perisinusoidal and portal/periportal fibrosis), “3” (septal or bridging fibrosis), and “4” (cirrhosis). In some embodiments the method of the invention provides no worsening of liver fibrosis. In some embodiments the terms “no worsening of liver fibrosis” or “no worsening of liver fibrosis stage” as used interchangeably herein refers to no increase of at least one stage of the Kleiner fibrosis classification.
A 72-week, randomised, double-blind, placebo-controlled, six-armed, parallel group, multicentre, multi-national phase 2 trial comparing once daily (OD) administration of semaglutide in three different doses (0.1 mg, 0.2 mg and 0.4 mg) with placebo in subjects with NASH was carried out. […]

[1] = 0.1 mg OD s.c., week 72, Fibrosis stage 1-3 at baseline (all randomised subjects)
[2] = 0.1 mg OD s.c., week 72, Fibrosis stage 1 at baseline
[3] = 0.1 mg OD s.c., week 72, Fibrosis stage 2 at baseline
[4] = 0.1 mg OD s.c., week 72, Fibrosis stage 2 or 3 at baseline
[5] = 0.1 mg OD s.c., week 72, Fibrosis stage 3 at baseline
[6] = 0.2 mg OD s.c., week 72, Fibrosis stage 1-3 at baseline (all randomised subjects)
[7] = 0.2 mg OD s.c., week 72, Fibrosis stage 1 at baseline
[8] = 0.2 mg OD s.c., week 72, Fibrosis stage 2 at baseline
[9] = 0.2 mg OD s.c., week 72, Fibrosis stage 2 or 3 at baseline
[10] = 0.2 mg OD s.c., week 72, Fibrosis stage 3 at baseline
[11] = 0.4 mg OD s.c., week 72, Fibrosis stage 1-3 at baseline (all randomised subjects)
[12] = 0.4 mg OD s.c., week 72, Fibrosis stage 1 at baseline
[13] = 0.4 mg OD s.c., week 72, Fibrosis stage 2 at baseline
[14] = 0.4 mg OD s.c., week 72, Fibrosis stage 2 or 3 at baseline
[15] = 0.4 mg OD s.c., week 72, Fibrosis stage 3 at baseline
[16] = all tested semaglutide dosages, liver fibrosis stage 1-3 at baseline

Substance: N-epsilon26-[2-(2-{2-[2-(2-{2-[(S)-4-Carboxy-4-(17-carboxyheptadecanoyl-amino)butyrylamino]ethoxy}ethoxy)acetylamino]ethoxy}ethoxy)acetyl] [Aib8, Arg34]GLP-1-(7-37) [Semaglutide]
- Improvement of hepatocyte ballooning at end of trial compared to baseline, proportion of subjects [1]: 61.3%
- Improvement of lobular inflammation at end of trial compared to baseline, proportion of subjects [1]: 41.3%
- Improvement of steatosis at end of trial compared to baseline, proportion of subjects [1]: 52.5%
- Resolution of NASH and no worsening in liver fibrosis at end of trial, proportion of subjects [1]: 43.8 (0.0023) %
- Resolution of NASH at end of trial, proportion of subjects [1]: 47.5%
- Improvement of hepatocyte ballooning at end of trial compared to baseline, proportion of subjects [2]: 60.9%
- Improvement of lobular inflammation at end of trial compared to baseline, proportion of subjects [2]: 34.8%
- Improvement of steatosis at end of trial compared to baseline, proportion of subjects [2]: 56.5%
- Resolution of NASH and no worsening in liver fibrosis at end of trial, proportion of subjects [2]: 52.2%
- Resolution of NASH at end of trial, proportion of subjects [2]: 60.9%
- Improvement of hepatocyte ballooning at end of trial compared to baseline, proportion of subjects [3]: 66.7%
- Improvement of lobular inflammation at end of trial compared to baseline, proportion of subjects [3]: 33.3%
- Improvement of steatosis at end of trial compared to baseline, proportion of subjects [3]: 61.1%
- Resolution of NASH and no worsening in liver fibrosis at end of trial, proportion of subjects [3]: 55.6%
- Resolution of NASH at end of trial, proportion of subjects [3]: 55.6%
- Improvement of hepatocyte ballooning at end of trial compared to baseline, proportion of subjects [4]: 61.4%
- Improvement of lobular inflammation at end of trial compared to baseline, proportion of subjects [4]: 43.9%
- Improvement of steatosis at end of trial compared to baseline, proportion of subjects [4]: 50.9%
- Resolution of NASH and no worsening in liver fibrosis at end of trial, proportion of subjects [4]: 40.4 (0.0100) %
- Resolution of NASH at end of trial, proportion of subjects [4]: 42.1%
- Improvement of hepatocyte ballooning at end of trial compared to baseline, proportion of subjects [5]: 59.0%
- Improvement of lobular inflammation at end of trial compared to baseline, proportion of subjects [5]: 48.7%
- Improvement of steatosis at end of trial compared to baseline, proportion of subjects [5]: 46.2%
- Resolution of NASH and no worsening in liver fibrosis at end of trial, proportion of subjects [5]: 33.3%
- Resolution of NASH at end of trial, proportion of subjects [5]: 35.9%
- Worsening of liver fibrosis stage determined via liver biopsy at end of trial compared to baseline, Proportion of subjects (0.1 mg OD s.c., week 72): 10.0%
- Improvement of hepatocyte ballooning at end of trial compared to baseline, proportion of subjects [6]: 70.5%
- Improvement of lobular inflammation at end of trial compared to baseline, proportion of subjects [6]: 47.4%
- Improvement of steatosis at end of trial compared to baseline, proportion of subjects [6]: 60.3%
- Resolution of NASH and no worsening in liver fibrosis at end of trial, proportion of subjects [6]: 38.5 (0.0138) %
- Resolution of NASH at end of trial, proportion of subjects [6]: 46.2%
- Improvement of hepatocyte ballooning at end of trial compared to baseline, proportion of subjects [7]: 84.2%
- Improvement of lobular inflammation at end of trial compared to baseline, proportion of subjects [7]: 42.1%
- Improvement of steatosis at end of trial compared to baseline, proportion of subjects [7]: 63.2%
- Resolution of NASH and no worsening in liver fibrosis at end of trial, proportion of subjects [7]: 47.4%
- Resolution of NASH at end of trial, proportion of subjects [7]: 68.4%
- Improvement of hepatocyte ballooning at end of trial compared to baseline, proportion of subjects [8]: 72.2%
- Improvement of lobular inflammation at end of trial compared to baseline, proportion of subjects [8]: 38.9%
- Improvement of steatosis at end of trial compared to baseline, proportion of subjects [8]: 66.7%
- Resolution of NASH and no worsening in liver fibrosis at end of trial, proportion of subjects [8]: 55.6%
- Resolution of NASH at end of trial, proportion of subjects [8]: 61.1%
- Improvement of hepatocyte ballooning at end of trial compared to baseline, proportion of subjects [9]: 66.1%
- Improvement of lobular inflammation at end of trial compared to baseline, proportion of subjects [9]: 49.2%
- Improvement of steatosis at end of trial compared to baseline, proportion of subjects [9]: 59.3%
- Resolution of NASH and no worsening in liver fibrosis at end of trial, proportion of subjects [9]: 35.6 (0.0359) %
- Resolution of NASH at end of trial, proportion of subjects [9]: 39.0%
- Improvement of hepatocyte ballooning at end of trial compared to baseline, proportion of subjects [10]: 63.4%
- Improvement of lobular inflammation at end of trial compared to baseline, proportion of subjects [10]: 53.7%
- Improvement of steatosis at end of trial compared to baseline, proportion of subjects [10]: 56.1%
- Resolution of NASH and no worsening in liver fibrosis at end of trial, proportion of subjects [10]: 26.8%
- Resolution of NASH at end of trial, proportion of subjects [10]: 29.3%
- Worsening of liver fibrosis stage determined via liver biopsy at end of trial compared to baseline, Proportion of subjects (0.2 mg OD s.c., week 72): 7.7%
- Improvement of hepatocyte ballooning at end of trial compared to baseline, proportion of subjects [11]: 74.4%
- Improvement of lobular inflammation at end of trial compared to baseline, proportion of subjects [11]: 37.8%
- Improvement of steatosis at end of trial compared to baseline, proportion of subjects [11]: 63.4%
- Resolution of NASH and no worsening in liver fibrosis at end of trial, proportion of subjects [11]: 56.1 (<0.0001) %
- Resolution of NASH at end of trial, proportion of subjects [11]: 61.0%
- Improvement of hepatocyte ballooning at end of trial compared to baseline, proportion of subjects [12]: 57.7%
- Improvement of lobular inflammation at end of trial compared to baseline, proportion of subjects [12]: 15.4%
- Improvement of steatosis at end of trial compared to baseline, proportion of subjects [12]: 53.8%
- Resolution of NASH and no worsening in liver fibrosis at end of trial, proportion of subjects [12]: 50.0%
- Resolution of NASH at end of trial, proportion of subjects [12]: 53.8%
- Improvement of hepatocyte ballooning at end of trial compared to baseline, proportion of subjects [13]: 78.6%
- Improvement of lobular inflammation at end of trial compared to baseline, proportion of subjects [13]: 50.0%
- Improvement of steatosis at end of trial compared to baseline, proportion of subjects [13]: 71.4%
- Resolution of NASH and no worsening in liver fibrosis at end of trial, proportion of subjects [13]: 64.3%
- Resolution of NASH at end of trial, proportion of subjects [13]: 78.6%
- Improvement of hepatocyte ballooning at end of trial compared to baseline, proportion of subjects [14]: 82.1%
- Improvement of lobular inflammation at end of trial compared to baseline, proportion of subjects [14]: 48.2%
- Improvement of steatosis at end of trial compared to baseline, proportion of subjects [14]: 67.9%
- Resolution of NASH and no worsening in liver fibrosis at end of trial, proportion of subjects [14]: 58.9 (<0.0001) %
- Resolution of NASH at end of trial, proportion of subjects [14]: 64.3%
- Improvement of hepatocyte ballooning at end of trial compared to baseline, proportion of subjects [15]: 83.3%
- Improvement of lobular inflammation at end of trial compared to baseline, proportion of subjects [15]: 47.6%
- Improvement of steatosis at end of trial compared to baseline, proportion of subjects [15]: 66.7%
- Resolution of NASH and no worsening in liver fibrosis at end of trial, proportion of subjects [15]: 75.1%
- Resolution of NASH at end of trial, proportion of subjects [15]: 59.5%
- Worsening of liver fibrosis stage determined via liver biopsy at end of trial compared to baseline, Proportion of subjects (0.4 mg OD s.c., week 72): 4.9%
- Worsening of liver fibrosis stage compared to placebo (in words) (all semaglutide dosages tested, week 72): lower proportion of subjects
- Resolution of NASH and no worsening in liver fibrosis compared to placebo (in words) [16]: achieved by significantly more subjects compared to placebo
- Resolution of NASH compared to placebo (in words) [16]: achieved by significantly more subjects compared to placebo

Source: patent US11478533B2, “Semaglutide for use in medicine” (Novo Nordisk A/S, priority 2020, dated 2022)
